Experimental data: US5578477A, “Identification and characterization of inhibtors of protein farnesyltransferase” (Arch Development Corporation, priority 1993, dated 1996)
Peptide text beside a SMILES is read from it.

Assays:
yeast FTase = molecular target: T1, yeast FTase (Saccharomyces cerevisiae, UniProt P22007+P29703); experiment: Prenyltransferase (FTase) assay with [3H]Fpp and GST-CIIS, purified yeast FTase; type: biochemical; conditions: for inhibition of FTase activity by salts: 100 mM salt
T1 construct: FTase was purified from SP1 cells carrying plasmids pBH28 and YEpDPR1 as described herein; made in house; host or cells: Saccharomyces cerevisiae SP1 carrying YEpDPR1 and pBH28
T1 sequence (P22007 1-431): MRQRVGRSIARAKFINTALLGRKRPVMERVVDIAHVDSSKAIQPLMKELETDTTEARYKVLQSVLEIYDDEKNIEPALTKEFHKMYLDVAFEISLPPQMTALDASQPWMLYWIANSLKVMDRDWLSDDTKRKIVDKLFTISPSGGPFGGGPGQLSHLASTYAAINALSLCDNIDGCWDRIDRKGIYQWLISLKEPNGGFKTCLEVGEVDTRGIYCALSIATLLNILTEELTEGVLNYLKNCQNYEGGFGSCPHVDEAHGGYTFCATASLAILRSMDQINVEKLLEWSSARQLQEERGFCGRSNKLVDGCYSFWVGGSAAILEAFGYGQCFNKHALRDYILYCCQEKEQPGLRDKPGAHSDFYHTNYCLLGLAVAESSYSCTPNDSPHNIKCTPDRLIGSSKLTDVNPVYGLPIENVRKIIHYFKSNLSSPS
T1 sequence (P29703 1-316): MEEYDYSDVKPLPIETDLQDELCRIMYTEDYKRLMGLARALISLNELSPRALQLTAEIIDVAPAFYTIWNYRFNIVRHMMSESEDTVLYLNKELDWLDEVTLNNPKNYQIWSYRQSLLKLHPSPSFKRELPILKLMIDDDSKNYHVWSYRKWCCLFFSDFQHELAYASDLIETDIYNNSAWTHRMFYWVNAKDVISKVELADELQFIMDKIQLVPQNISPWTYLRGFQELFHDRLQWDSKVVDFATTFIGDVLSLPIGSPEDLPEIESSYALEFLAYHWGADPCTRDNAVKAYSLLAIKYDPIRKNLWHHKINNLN
Experimental: Prenyltransferase assays were performed essentially as described in Goodman et al., 1990; Finegold et al., 1991. Briefly, the reaction mixture (20 μl) contained 50 mM potassium phosphate, pH 7.4 (or 50 mM Tris/HCl, pH 8.0), 10 mMMgCl2, 5 mM DTT, 5 μM ZnCl2, 0.8-1.12 μM [^3 H] farnesyl pyrophosphate (Fpp) (20 Ci/mmol; New England Nuclear) or [^3 H] geranylgeranyl pyrophosphate (GGpp) (20 Ci/mmol; New England Nuclear, Boston, Mass.), 19 μg of GST-CIIS or 30 μg of GST-CIIL protein and enzymes. Incubation was carried out at 37° C., and the radioactivity incorporated was determined by spotting the reaction mixture onto a filter paper, treating with 10% trichloroacetic acid, followed by ethanol and acetone washing.
Reaction mixture (20 μl) for results shown in open squares contained 1.12 μM [^3 H] Fpp, 4.38 ng FTase, 19 μM GST-CIIS, 0.1 mM EDTA and the indicated concentration of MgCl2. Reaction mixtures (20 μl) for results shown in closed diamond contained 0.1 mM ZnCl2 in addition to the above. Incubation was carried out for 10 minutes at 37° C. and radioactivity incorporated was determined as described herein.
Substrate specificity of yeast FTase was investigated by comparing incorporation of Fpp or GGpp into two different substrate proteins, GST-CIIS (.quadrature.) and GST-CIIL (.circle-solid.). […] The reaction mixture (20 μl) contained 1.12 μM [^3 H] Fpp, 20 ng FTase, and the indicated concentrations of either GST-CIIS or GST-CIIL1 protein. Incubations were carried out for 10 minutes at 37° C. and the radioactivity incorporated was measured as described herein.
Dilution of the peptides was made in 10 mM DTT. Incubation was carried out for 10 minutes at 37° C. and the radioactivity incorporated was determined as described herein.

yeast PFT = molecular target: T2, yeast PFT (Saccharomyces cerevisiae, UniProt P22007+P29703); experiment: Farnesyltransferase assay using RAS2CT1 protein and [3H]Fpp, without dithiothreitol; type: biochemical, S. cerevisiae
T2 construct: FTase was purified from SP1 cells carrying plasmids pBH28 and YEpDPR1 as described herein; made in house; host or cells: Saccharomyces cerevisiae SP1 carrying YEpDPR1 and pBH28
T2 sequence (P22007 1-431): T1 sequence (P22007 1-431)
T2 sequence (P29703 1-316): T1 sequence (P29703 1-316)
Experimental: (§1) Farnesyltransferase assay. FTase from S. cerevisiae was purified from yeast cells overexpressing DPR1 and RAM2 as described herein. Rat brain FTase was partially purified by the method described by Reiss et al. PGGT purified from bovine brain was a gift of Drs. M. Gelb and K. Yokoyama (Univ. of Washington). FTase assays were carried out using RAS2CT1 protein and [^3 H]Fpp according to the method described herein except that Tris-HCl(pH8) was used instead of phosphate buffer. PGGT assays were carried out using GST-CIIL protein and [^3 H]GGpp as described herein except that Tris-HCl(pH7.4) was used instead of phosphate buffer. […] Incubation was carried out at 37° C.
Inhibition of Farnesyltransferase.
To investigate the mechanism of inhibition by UCF1-C, kinetic analyses were carried out. […] The same Km value was observed when the Linewaver-Burke plot was analyzed under different ras and UCF1-C concentrations (.quadrature.=0 μM, .tangle-solidup.=10 μM, and .box-solid.=20 μM) in the presence of a constant concentration of Fpp.

PGGT I = molecular target: T3, PGGT I (Bos taurus, UniProt P29702+Q5EAD5); experiment: PGGT assay using GST-CIIL protein and [3H]GGpp; type: biochemical, bovine
T3 construct: PGGT purified from bovine brain was a gift of Drs; M. Gelb and K. Yokoyama; tissue gift of Drs; M. Gelb and K. Yokoyama (Univ. of Washington); host or cells: bovine brain
Experimental: as §1
FIG. 6B compares the effect of UCF1-C on PGGT I and PFT.

In the case of `[Cl-].[K+]` [KCl], the “inhibition of FTase activity by salts” value (yeast FTase) is reported as “Approximately 50%”.
`[Cl-].[Li+]` [LiCl] was tested, and the “inhibition of FTase activity by salts” value (yeast FTase) was “Approximately 50%”.
EHWSYGLRPG [LHRH] was tested, and the “inhibition of FTase activity by peptide (in words)” value (yeast FTase; control peptides of the same size, unrelated sequences) was “little inhibition”.
`CCCC[C@@H](C)/C=C(C)/C=C(\C)C(=O)NC1=C[C@@](O)(/C=C/C=C/C=C/C(=O)NC2=C(O)CCC2=O)[C@@H]2O[C@@H]2C1=O` [UCF1-C] was tested, and the “mechanism of inhibition with respect to Fpp” value (yeast PFT; Lineweaver-Burk, changes Km for Fpp, not Vmax) was “competitive inhibitor”, the “mechanism of inhibition with respect to ras protein” value (yeast PFT; Lineweaver-Burk, same Km for RAS2, constant Fpp) was “non-competitive inhibitor” and the IC50 (yeast PFT; RAS2CT1, [3H]Fpp, Tris-HCl pH 8, no dithiothreitol, 37° C.) was 5 µM. For the same molecule, the Ki (yeast PFT; secondary plot of slopes against UCF1-C concentration, Fpp varied, constant ras) was 1.2 µM, the “PGGT I activity still detectable” value (PGGT I; 1 mM concentration) was “approximately 30%” and the IC50 (PGGT I; GST-CIIL, [3H]GGpp, Tris-HCl pH 7.4, read-out: IC50 for PGGT I inhibition) was 180 µM.
`CSCC[C@H](NC(=O)[C@H](CC(C)C)NC(=O)[C@@H](NC(=O)[C@H](CS)NC(=O)[C@H](CS)NC(=O)[C@@H](NC(=O)[C@H](CO)NC(=O)[C@H](CC(N)=O)NC(=O)[C@H](CO)NC(=O)[C@@H](N)CC(N)=O)C(C)C)[C@@H](C)O)C(=O)O` [MG13, NSNSVCCTLM] (H-NSNSVCCTLM-OH) gave an IC50 (yeast FTase) of 10 µM.
`[Cl-].[Na+]` [NaCl] was tested, and the “inhibition of FTase activity by salts” value (yeast FTase) was “Approximately 50%”.
Molecule `CC(C)=CCC/C(C)=C/CC/C(C)=C/COP(=O)(O)OP(=O)(O)O` [Fpp, farnesyl pyrophosphate] has a Km (yeast FTase; secondary plots, substrates Fpp and GST-CIIS varied) of 8.1 µM.
In the case of `O=C(O)CN(CCN(CC(=O)O)CC(=O)O)CC(=O)O` [EDTA], the “effect of EDTA addition on FTase activity” value (yeast FTase) is reported as “dramatic inhibition”.
